Measured values: PMC11901700, “A Sweet Almond Globulin Multifunctional Peptide: Identification, In Silico Screening, Restraint Mechanisms to Keap1 and ACE, and Antihypertensive and Ferrous Transport Efficiency” (Nutrients, 2025)
Where no end group is shown, it is not given here.

Experiments:
[1] = Hydroxyl radical scavenging activity (β-deoxyribose oxidation method); assay type: physicochemical; settings: at 100 μg/mL
Protocol: As described by Wang et al. and Vásquez et al., the hydroxyl (·OH) and superoxide ( O2−· ) radicals’ scavenging activity was measured using the β-deoxyribose oxidation and pyrogallol auto-oxidation methods, respectively. The comparison was conducted when the samples were replaced by glutathione (0.1 mg/mL).

Caco-2 cells = assay: Iron transmembrane absorption across Caco-2 cell monolayers; assay type: in vitro ADME; settings: chelate 320 μg/mL, p < 0.05
Protocol: In a 24-well Transwell culture plate, Caco-2 cells (0.75 × 10^6 cells/cm^2) were cultivated using Dulbecco’s modified Eagle’s medium that contained fetal bovine serum (20 g/L), streptomycin (1 μg/μL), penicillin (1 μg/μL), and neomycin (1 μg/μL), and it was refreshed every 48 h. After 12–14 d of incubation at 5% CO2 and 37 °C, the transepithelial electrical resistance was more than 400 Ω·cm^2, and a monolayer Caco-2 cell mode was formed. Afterwards, the medium was removed, and Hank’s Balanced Salt Solution was added. After 30 min of cultivation at 5% CO2 and 37 °C, Hank’s Balanced Salt Solution was removed from the apical side, and SAGH peptide–ferrous chelates (320 μg/mL) were added and then cultivated at 5% CO2 and 37 °C for 150 min. Every 30 min, the ferrous amount of the basolateral-side cultivate solution was measured using the o-phenanthroline method.

ABTS+ quenching ability = assay type: physicochemical; settings: at 100 μg/mL; absorbance at 734 nm; mean ± standard error
Protocol: The ABTS^+ quenching ability was determined following the same procedures described by Vásquez et al.. The same system without the sample was the control, and glutathione (0.1 mg/mL) was the comparison. The percentage of reduction in absorbance at 734 nm was defined as the ABTS^+ scavenging ability of samples.

ACE (from rabbit lungs) = target: T1, ACE (from rabbit lungs) (Oryctolagus cuniculus, UniProt P12822); assay: ACE inhibitory kinetics (Lineweaver–Burk plot); assay type: biochemical; settings: HHL 0.13–1.32 mmol/L as substrate, N = 3
T1 construct: ACE (0.1 U, from rabbit lungs, purity > 99.7%, CAS: 9015-82-1) was obtained from Sigma-Aldrich; purchased Sigma-Aldrich (St. Louis, MO, USA); host or cells: rabbit lung tissue
T1 sequence (P12822 34-1310): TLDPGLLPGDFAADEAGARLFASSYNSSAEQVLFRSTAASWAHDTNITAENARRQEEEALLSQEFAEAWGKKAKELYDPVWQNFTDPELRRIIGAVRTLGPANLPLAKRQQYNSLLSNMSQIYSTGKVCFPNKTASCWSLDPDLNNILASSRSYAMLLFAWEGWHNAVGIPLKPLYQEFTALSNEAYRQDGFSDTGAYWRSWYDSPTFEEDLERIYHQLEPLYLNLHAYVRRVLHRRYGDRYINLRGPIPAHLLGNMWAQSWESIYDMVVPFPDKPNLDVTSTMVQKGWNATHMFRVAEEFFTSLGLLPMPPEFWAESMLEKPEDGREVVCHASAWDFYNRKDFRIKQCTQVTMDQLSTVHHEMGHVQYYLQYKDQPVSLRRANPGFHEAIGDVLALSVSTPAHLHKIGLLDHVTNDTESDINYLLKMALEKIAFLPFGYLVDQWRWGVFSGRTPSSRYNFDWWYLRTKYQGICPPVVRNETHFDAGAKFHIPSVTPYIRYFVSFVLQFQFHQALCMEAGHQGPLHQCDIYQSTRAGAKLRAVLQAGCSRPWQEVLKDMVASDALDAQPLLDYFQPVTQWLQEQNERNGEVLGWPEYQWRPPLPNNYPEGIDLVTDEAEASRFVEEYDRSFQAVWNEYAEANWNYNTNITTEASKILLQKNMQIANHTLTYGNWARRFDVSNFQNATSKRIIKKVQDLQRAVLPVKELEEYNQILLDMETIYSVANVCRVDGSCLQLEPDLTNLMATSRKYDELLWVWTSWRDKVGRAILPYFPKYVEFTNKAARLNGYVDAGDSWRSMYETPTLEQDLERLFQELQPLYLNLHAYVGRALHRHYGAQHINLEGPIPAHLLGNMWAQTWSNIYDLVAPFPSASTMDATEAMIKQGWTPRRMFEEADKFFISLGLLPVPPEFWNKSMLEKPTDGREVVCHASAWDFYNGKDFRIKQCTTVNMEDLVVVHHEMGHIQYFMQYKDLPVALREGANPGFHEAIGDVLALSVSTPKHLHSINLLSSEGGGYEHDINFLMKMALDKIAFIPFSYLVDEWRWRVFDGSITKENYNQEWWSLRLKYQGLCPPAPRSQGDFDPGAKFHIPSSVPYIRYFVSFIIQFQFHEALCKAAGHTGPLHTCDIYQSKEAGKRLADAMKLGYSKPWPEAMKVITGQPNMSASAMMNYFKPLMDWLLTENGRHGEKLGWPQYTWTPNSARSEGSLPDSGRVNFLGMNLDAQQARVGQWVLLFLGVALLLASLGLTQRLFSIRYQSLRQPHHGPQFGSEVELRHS
Excerpt: The hippuric acid method was used to measure the samples’ inhibitory ability towards ACE, following the same procedures as Zheng et al.. The absorbance at 228 nm was the hippuric acid content and represented ACE activity; therefore, the inhibitory ability of samples towards ACE was defined as the percentage of reduction in the absorption at 228 nm between the control and sample groups. Moreover, the ACE inhibitory kinetic of SAGH peptides was investigated by employing a Lineweaver–Burk plot with N-hippuryl-L-histidyl-L-leucine (HHL, 0.13–1.32 mmol/L) as the substrate.

[2] = test system: spontaneously hypertensive rats (SHRs); assay: Effects on blood pressures of spontaneously hypertensive rats; assay type: in vivo, rat
Protocol: Spontaneously hypertensive rats (SHRs, each weighting approximately 250 g, 14 weeks old) were obtained from Vitonglihua Test Animal Biotech. Co., Ltd. (Beijing, China) and used to investigate the hypotensive ability of ACE inhibitory and antioxidant SAGH peptides. After 7 days of adaptation, the SHRs were assigned to the blank, positive, SAGH peptides, and SAGH peptide–ferrous chelate groups (each group contained six SHRs), which were orally administered NaCl ([…]), captopril (14 mg per body weight kg), peptides (50, 150, and 200 mg per body weight kg), and peptide–ferrous chelates (50, 150, and 200 mg per body weight kg) every day, respectively. At 0, 120, 360, and 600 min after oral administration, the systolic and diastolic blood pressures and heart rates of the SHRs were measured using a NIBP-M1 Rat-tail noninvasive blood pressure monitor (Yuyan Scientific Instrument Co., Ltd., Shanghai, China) following the tail cuff method.

Substance: PMYGGGMV–ferrous chelate: chelate prepared by reacting the peptide with FeCl2 at pH 6.5 (also: ferrous iron chelate (reaction with FeCl2))
- ·OH Scavenging Activity (%) Before Gastrointestinal Digestion [1]: 57.69 ± 0.07 d %
- ·OH Scavenging Activity (%) Before Gastrointestinal Digestion ([1]; listed as PMYGGGMV–ferrous chelates): 60.04%
- ability to improve ferrous transmembrane absorption (Caco-2 cells; Caco-2 monolayer, Transwell, TEER > 400 Ω·cm2, apical to basolateral, comparators 0.3 mg/mL, HBSS, 37 °C, 5% CO2, 150 min, o-phenanthroline every 30 min, N = 3): greater than that of ferrous chloride
- iron transport across the Caco-2 monolayer compared with ferrous lactate (Caco-2 cells; during 120–150 min, apical to basolateral, ferrous lactate 0.3 mg/mL): better
- ABTS+ Scavenging Activity (%) Before Gastrointestinal Digestion (ABTS+ quenching ability): 35.27 ± 2.45 d %
- ACE inhibition mode (ACE (from rabbit lungs)): increased the Km value of the Michaelis–Menten kinetic curves but did not change the Vmax
- dose dependence of blood pressure lowering effect ([2]; oral, 50, 150 and 200 mg/kg body weight, p > 0.05): not dose-dependent
- effect on diastolic and systolic blood pressures ([2]; oral, 50–200 mg/kg body weight, from 1 h of dosing, tail cuff method, p < 0.05): apparently lowered the diastolic and systolic blood pressures
